Values belong to the molecule of their own block, whether it stands above or below them.
Legend:
DRG neurons = test: Patch-clamp excitability of DRG neurons from transgenic mice lacking glial TGF-β receptor response; assay type: cell-based, mouse
Text: Transgenic mice. To decrease the response to TGF-β specifically in astrocytes, we took advantage of a dominant negative mutation in the type II TGF-β receptor that has been cloned into a bidirectional doxycycline-regulatable element (bi-tetO) that also drives enhanced green fluorescent protein (GFP). Andrews, Z. B. et al., 2006 Neurobiol Dis. 21, 568-75. TetO-TBR2-DN mice were obtained from Jackson Laboratories, Bar Harbor, Me. This line was crossed to a GFAP-tTA transgenic line (Jackson Laboratories). This line confers expression of tetO transgenes to astrocytes in the absence of doxycycline, and is induced by injuries, including stroke. DRGs were dissected from these mice and cultured as above.
(§1) Electrophysiology. Whole-cell voltage patch-clamp recordings were conducted at room temperature (22-23° C.) on the stage of an inverted phase contrast microscope (Nikon Inc., Melville, N.Y.). The recording pipettes were pulled from borosilicate glass to give final resistances of […]. Data were acquired with Digidata interface (1200 series, Axon Instruments) and pClamp software (version 9.1, Axon Instruments). The concentrations of the electrode solutions (in mM) used in these experiments were as follows: for recording action potential, K^+ current and non-selective cationic current (pH adjusted to 7.3-7.4 using KOH): potassium gluconate (115), KCl (25), NaCl (5), HEPES (10), CaCl (1), EGTA (1.12) and ATP-Mg (2); for recording Na^+ current (pH adjusted to 7.3-7.4 using NaOH): CsF (110), MgCl2 (5), EGTA (11), NaCl (10) and HEPES (10). The cells were bathed in modified Tyrode saline consisting of (in mM): NaCl (135), KCl (5.4), MgCl2 (1), CaCl2 (2), NaH2PO3 (0.1), HEPES (10) and glucose (10). The osmolality was maintained at 280-300 mOsm for the intracellular electrolyte and 300-330 mOsm for the extracellular bath solution. Agents such as capsaicin, capsazepine, TEA, 4AP, TTX etc were delivered through a valve control system (BPS-4, Scientific Instrument, New York). Prior to patch clamping a cell, the amplifier (Axopatch 200B, Axon Instruments, CA, USA) was zeroed so that any junction potential was balanced by an offset potential. High resistance (Gigaohm) seals were formed between the recording electrode and cell membrane and ruptured by suction using standard patch clamp recording methods. Action potentials were recorded in mode of I-clamp after observed membrane potential setting at I=0, and the currents were recorded by switching mode to v-clamp. The current signals were recorded to disk for off-line analysis using pCLAMP fit and Origin 7. Results were expressed as means±SE, n=number of cells.

conscious rats = test: Nocifensive behaviors to electrical stimulation of the pancreas after intrapancreatic infusion of TGF-β; assay type: in vivo; conditions: intra-pancreatic infusion, 400 ng per rat
Procedure: Intrapancreatic infusion of TGF-β. Rats were anesthetized with sodium nembutal (Abbott Laboratories, Chicago, Ill.) (50 mg/kg body weight, i.p.). The peritoneum was incised to expose the duodenum, and the duodenal loop was pulled out. The pancreatic duct entering the duodenum was identified under dissecting microscope, and a small niche was made into the duct with a 30-gauge needle. A polyethylene 10 tubing (0.61 mm outer diameter) (Becton Dickinson and Company, Franklin Lakes, N.J.) was guided into the duct and tied to secure its position. The position of the tube in the pancreatic duct was confirmed by observing bile flowing through the tubing. The common bile duct was ligated close to the liver to prevent entry of the injected substance into the liver. Similarly the duct was ligated near its entry into the duodenum. Four hundred μl (0.4 ml) per rat of 400 ng of TGF-β1 or TGF-β2 in 10% ethanol in phosphate buffered saline (PBS) or vehicle alone was injected through a syringe connected to the tubing. The tubing was carefully removed and bile flow from the liver into the duodenum was re-established. The abdominal cavity was closed with sutures and rats allowed to recover.
Behavioral Studies of Rats with Chronic Pancreatitis. […] The number of nocifensive behaviors observed during 5 min of stimulation period was counted. […]

SMAD3 [1] = target: SMAD3 (Homo sapiens, UniProt P84022); conditions: cited from earlier work
SMAD3 [2] = target: T1, SMAD3 (Rattus norvegicus, UniProt P84025); test: Excitability of DRG neurons with TGF-β and SIS3; assay type: cell-based; conditions: SIS3 3 μM
T1 construct: endogenous in cells; host or cells: primary DRG neurons
Procedure: SIS3 was dissolved in DMSO and diluted in culture media that was added at the time of plating with a final concentration of 3 μM. After one hour, the culture wells received TGF-β1 (0.2 ng/ml) for further incubation. Most cells were patched at 12-24 h, and both agents were refreshed daily if incubated for over 24 h.

[3] = tested on: TGF-β1, TGF-β2, and TGF-β3; conditions: cited from earlier work
Kv channels = test: Voltage-dependent K+ currents in DRG neurons; assay type: cell-based, rat
Procedure: as §1
TGF-β influences K^+ and Na^+ channel activity (FIGS. 6 and 7). Voltage-dependent potassium (Kv) currents play a fundamental role in determining neuronal excitability. […]

sodium channel = test: Sodium channel currents in DRG neurons; assay type: cell-based, rat
Procedure: as §1, with “The osmolality was maintained at 280-300 mOsm for the intracellular electrolyte and 300-330 mOsm for the extracellular bath solution. Agents such as capsaicin, capsazepine, TEA, 4AP, TTX etc were delivered through a valve control system (BPS-4, Scientific Instrument, New York). Prior to patch clamping a cell, the amplifier (Axopatch 200B, Axon Instruments, CA, USA) was zeroed so that any junction potential was balanced by an offset potential. High resistance (Gigaohm) seals were formed between the recording electrode and cell membrane and ruptured by suction using standard patch clamp recording methods.” left out, “cells. […]” for “cells.”

rat DRG neurons = test: Whole-cell patch-clamp excitability of cultured DRG neurons; assay type: cell-based
Procedure: Dorsal Root Ganglia (DRG) neurons culture. Adult Sprague-Dawley rats (120-150 g) were sacrificed by decapitation. Thoracic and lumbar DRGs were then bilaterally dissected out and transferred to ice-cold Minimal Essential Medium (Gibco, Grand Island, N.Y.) supplemented with penicillin-streptomycin (2×, Gibco, Grand Island, N.Y.). After trimming axons and connective tissue, ganglia were transferred into enzyme solution, i.e., Hank's Balanced Salt Solution containing 5 mg/ml collagenase (Type 2, Worthington, Lakewood, N.J.), and incubated for three hours at 5% CO2-95% O2 37° C. A pellet was subsequently obtained by repeated trituration through flame-polished glass pipettes and centrifuged at 50×g for 10 minutes. Single cells were resuspended and plated onto poly-1-ornithine (Sigma) coated coverslips with neurobasal media (Gibco) supplemented with albumin solution (0.7%, Sigma), penicillin-streptomycin (2×), B27 with retinoic acid (2×, Invitrogen), beta-mercaptoethanol (0.11 mM, Gibco), mouse nerve growth factor ([…], Promega, Madison, Wis.) and L-glutamine (2×, Gibco). Recombinant TGF-β1 and TGF-β2 (Calbiochem, cat #616455, PF017) were dissolved in 10% ethanol in phosphate buffered saline (PBS) to yield a stock concentration of 10 ng/μl. TGF-β1 or TGF-β2 (10 ng/ml) was added to cultures at the beginning of incubation at 37° C. 5% CO2-95% O2.
as §1, with “Agents such as capsaicin, capsazepine, TEA, 4AP, TTX etc were delivered through a valve control system (BPS-4, Scientific Instrument, New York). Prior to patch clamping a cell, the amplifier (Axopatch 200B, Axon Instruments, CA, USA) was zeroed so that any junction potential was balanced by an offset potential. High resistance (Gigaohm) seals were formed between the recording electrode and cell membrane and ruptured by suction using standard patch clamp recording methods.” left out

TRPV1 = target: T2, TRPV1 (Rattus norvegicus, UniProt O35433); test: Capsaicin-induced inward current in DRG neurons; assay type: cell-based
T2 construct: endogenous in cells; host or cells: primary rat DRG neurons
Procedure: as §1, with “The osmolality was maintained at 280-300 mOsm for the intracellular electrolyte and 300-330 mOsm for the extracellular bath solution. Agents such as capsaicin, capsazepine, TEA, 4AP, TTX etc were delivered through a valve control system (BPS-4, Scientific Instrument, New York). Prior to patch clamping a cell, the amplifier (Axopatch 200B, Axon Instruments, CA, USA) was zeroed so that any junction potential was balanced by an offset potential. High resistance (Gigaohm) seals were formed between the recording electrode and cell membrane and ruptured by suction using standard patch clamp recording methods.” left out, “cells. […]” for “cells.”

SMAD3 [4] = conditions: cited from earlier work
[5] = tested on: spinal cord laminae I/II FOS positive cells; test: FOS immunochemistry in spinal cord after intrapancreatic TGF-β infusion and electrical stimulation; assay type: in vivo, rat; conditions: intra-pancreatic infusion 400 ng followed by ES
Procedure: FOS Immunochemistry. Eight rats were used for this experiment (TGF-β n=4; Vehicle n=4). TGF-β2 (400 ng) in 0.4 ml of 10% ETOH/PBS or vehicle alone were infused into pancreatic duct of rats. 24 hours later rats underwent noxious electrical stimulation of the pancreas (5 mA for 5 minutes). Thirty minutes later the rats were transcardially perfused with 150 ml of normal saline followed by ice cold 400 ml of 4% paraformaldehyde in 0.1M phosphate buffer (PB) pH 7.4. Spinal cord segments corresponding to DRG T8-T10 were identified, cut and post-fixed in 4% paraformaldehyde over night. The samples were then transferred to 30% sucrose in 0.1 M PB for 24 hours at 4° C. followed by freezing on dry ice with optimum cutting temperature (OCT). Frozen serial coronal sections (35 μm) were cut on a cryostat, collected in separate wells of a 24-well plate and stored floating in antifreeze at −20° C. We processed a total of 6 sections per segment. The sections were stained with a rabbit polyclonal primary antiserum directed against FOS (ab7963, Abcam, Cambridge Mass.), diluted (1:2000) in PB saline containing 3% normal goat serum and 0.1% Triton X-100, for 24 h at 4° C. […] The number of FOS positive cells in spinal cord laminae I/II were counted under 40× magnification from 6 slices per individual spinal segment per animal by two blinded investigators.

T1 sequence (P84025 whole entry): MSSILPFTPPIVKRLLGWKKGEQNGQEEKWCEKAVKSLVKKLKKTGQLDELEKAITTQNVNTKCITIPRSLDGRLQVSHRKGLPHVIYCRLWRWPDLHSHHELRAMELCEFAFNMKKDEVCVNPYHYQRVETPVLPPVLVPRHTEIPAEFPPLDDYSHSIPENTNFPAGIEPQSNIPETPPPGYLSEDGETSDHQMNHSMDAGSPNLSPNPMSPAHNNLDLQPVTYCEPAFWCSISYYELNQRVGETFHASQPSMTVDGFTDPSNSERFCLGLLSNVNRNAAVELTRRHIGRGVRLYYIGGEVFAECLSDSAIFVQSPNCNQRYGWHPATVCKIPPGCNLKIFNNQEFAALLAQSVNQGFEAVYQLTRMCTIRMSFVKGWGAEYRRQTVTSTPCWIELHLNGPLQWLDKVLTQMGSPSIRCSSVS
T2 sequence (O35433 whole entry): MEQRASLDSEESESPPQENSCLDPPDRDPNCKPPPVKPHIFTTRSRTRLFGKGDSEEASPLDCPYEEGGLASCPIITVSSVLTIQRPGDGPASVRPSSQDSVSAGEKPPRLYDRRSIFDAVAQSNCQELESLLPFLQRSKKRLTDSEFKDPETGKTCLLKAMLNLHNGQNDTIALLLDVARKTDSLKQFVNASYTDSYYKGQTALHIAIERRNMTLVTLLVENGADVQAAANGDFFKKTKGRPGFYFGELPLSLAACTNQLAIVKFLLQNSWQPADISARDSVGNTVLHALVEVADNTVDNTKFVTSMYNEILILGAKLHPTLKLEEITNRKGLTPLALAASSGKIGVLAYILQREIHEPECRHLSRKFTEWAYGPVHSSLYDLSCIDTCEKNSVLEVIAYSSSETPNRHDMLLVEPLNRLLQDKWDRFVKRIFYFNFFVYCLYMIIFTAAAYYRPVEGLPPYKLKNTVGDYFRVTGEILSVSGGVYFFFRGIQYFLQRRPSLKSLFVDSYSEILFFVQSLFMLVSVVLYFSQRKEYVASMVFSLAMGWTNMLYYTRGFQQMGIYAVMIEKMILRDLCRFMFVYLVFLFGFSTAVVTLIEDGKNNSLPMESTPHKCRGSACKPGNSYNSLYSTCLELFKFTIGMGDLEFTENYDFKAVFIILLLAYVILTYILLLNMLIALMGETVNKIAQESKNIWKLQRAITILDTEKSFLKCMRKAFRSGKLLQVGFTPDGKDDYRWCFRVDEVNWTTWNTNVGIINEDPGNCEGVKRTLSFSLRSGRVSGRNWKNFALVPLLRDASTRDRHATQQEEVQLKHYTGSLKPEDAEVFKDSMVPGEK
Chain of SMAD3 (Homo sapiens, UniProt P84022) (P84022 whole entry): as the sequence (P84025 whole entry) above

Molecule: TGF-β1: Recombinant TGF-β1 (Calbiochem)
rheobase (DRG neurons; transgenic mouse DRG): 0.03 nA
firing threshold (DRG neurons; transgenic mouse DRG, n=7): −35 mV
spikes (DRG neurons; transgenic mouse DRG, n=7): 2.8±1.5
behavioral response to noxious stimulation (electric stimulation, ES) (conscious rats): hyperalgesic behavioral response

decrease in RMP induced by TGFβ (SMAD3 [2]; TGF-β 10 ng/ml, 48 hours): prevented the decrease in RMP
TGF-β1 induced changes in frequency of action potentials at 2× rheobase current (SMAD3 [2]; TGF-β1 0.2 ng/ml): attenuate
TGF-β1 induced changes in resting membrane potential (RMP) (SMAD3 [2]; TGF-β1 0.2 ng/ml): attenuate
TGF-β1 induced changes in rheobase (SMAD3 [2]; TGF-β1 0.2 ng/ml): attenuate
Molecule: Cc1cc2c(cc1C)CN(C(=O)/C=C/c1c(-c3ccccc3)n(C)c3ncccc13)CC2.Cl [SIS3]
production of extracellular matrix (SMAD3 [1]; TGF-β1-treated normal fibroblasts and scleroderma fibroblasts): blocked excessive production of extracellular matrix
Smad3 phosphorylation (SMAD3 [1]): suppresses Smad3 phosphorylation

Molecule: GC1008: humanized TGF-β-neutralizing monoclonal antibody
neutralization of TGF-β ligands/isoforms [3]: capable of neutralizing all three TGF-β isoforms

RMP (DRG neurons; transgenic mouse DRG preparations, 10 ng/ml): −49.7±5.5 mV
capsaicin induced current (TRPV1; neurons treated with TGF-β, n=17): 724.7±129.4 pA
Molecule: TGF-β
tested neurons showing an absence of IA current (Kv channels; TGF-β treated neurons): 11 of 22
Itotal density (Kv channels; all Kv channels, DRG neurons in culture): did not result in a significant reduction
IA density (Kv channels; at +30 mV, n=10): 29.6±3.8 pA/pF
density of TTXR current (sodium channel; n=7): 114.25±27.32
density of total INa (sodium channel; n=23): 216.12±15.01
resting membrane potential (RMP) (rat DRG neurons; rat DRG cultures exposed to TGF-β, n=21): −48.8±7.6 mV
proportion of tested cells showing multiple action potentials (rat DRG neurons; rat DRG neurons): 43%
current pulse (rheobase) required for triggering an action potential (rat DRG neurons; rat DRG neurons, n=11): 0.15±0.09 nA
number of action potentials evoked by two times rheobase current stimulation (rat DRG neurons; rat DRG neurons, n=17): 2.75 Hz

effect on capsaicin-induced inward current (TRPV1; middle sized neurons): suppressible
Molecule: Oc1cc2c(cc1O)CN(C(=S)NCCc1ccc(Cl)cc1)CCC2 [capsazepine, reference compound]

Molecule: NC(=O)c1ccc(-c2nc(-c3ccc4c(c3)OCO4)c(-c3ccccn3)[nH]2)cc1 [SB431542]
Smad3 phosphorylation (SMAD3 [4]): selective inhibition of Smad3 phosphorylation

B1: TGF-β2: Recombinant TGF-β2 (Calbiochem) (protein, UniProt P61812 303-414, looked up)
Transforming growth factor …: ALDAAYCFRNVQDNCCLRPLYIDFKRDLGWKWIHEPKGYNANFCAGACPYLWSSDTQHSRVLSLYNTINPEASASPCCVSQDLEPLTILYYIGKTPKIEQLSNMIVKSCKCS
modifications: Transforming growth factor beta-2
FOS expression in the spinal cord [5]: greater FOS expression
behavioral response to noxious stimulation (electric stimulation, ES) (conscious rats): hyperalgesic behavioral response
